Measured values reported in patent US20090149482A1, “STEREOCHEMICALLY DEFINED DIPEPTIDE ESTERS OF ANTIVIRAL AGENTS FOR ENHANCED OCULAR TREATMENT” (priority 2001, published 2009).
Where two headings read alike, the source gives them in different places. Marks after values point to notes of the source that are not given here. One block for each molecule: values may come before it. Where a SMILES comes first, the peptide text is derived from it. [ ]: non-standard residue; d: D form. Sar = CNCC(=O)O

Tests used:
[1] = test system: oligopeptide transporter on the rabbit cornea
HCMV = test: In vitro antiviral screening, CPE inhibition in HFF cells; assay type: cell-based, human cytomegalovirus; settings: Human betaherpesvirus 5, HFF; HCMV, CPE Inhibition
hPEPT1 = biological target: T1, hPEPT1 (Homo sapiens, UniProt P46059); test: [3H] Glycylsarcosine uptake and its inhibition in Caco-2 cells (affinity towards peptide transporter); assay type: cell-based; settings: for effect on the uptake of [3H] Gly-Sar: Caco-2, pH 6.0, 10 minutes; for Ki: read-out: Ki
T1 construct: endogenous in cells; host or cells: Caco-2 (human colon carcinoma, ATCC)
T1 sequence (P46059 1-708): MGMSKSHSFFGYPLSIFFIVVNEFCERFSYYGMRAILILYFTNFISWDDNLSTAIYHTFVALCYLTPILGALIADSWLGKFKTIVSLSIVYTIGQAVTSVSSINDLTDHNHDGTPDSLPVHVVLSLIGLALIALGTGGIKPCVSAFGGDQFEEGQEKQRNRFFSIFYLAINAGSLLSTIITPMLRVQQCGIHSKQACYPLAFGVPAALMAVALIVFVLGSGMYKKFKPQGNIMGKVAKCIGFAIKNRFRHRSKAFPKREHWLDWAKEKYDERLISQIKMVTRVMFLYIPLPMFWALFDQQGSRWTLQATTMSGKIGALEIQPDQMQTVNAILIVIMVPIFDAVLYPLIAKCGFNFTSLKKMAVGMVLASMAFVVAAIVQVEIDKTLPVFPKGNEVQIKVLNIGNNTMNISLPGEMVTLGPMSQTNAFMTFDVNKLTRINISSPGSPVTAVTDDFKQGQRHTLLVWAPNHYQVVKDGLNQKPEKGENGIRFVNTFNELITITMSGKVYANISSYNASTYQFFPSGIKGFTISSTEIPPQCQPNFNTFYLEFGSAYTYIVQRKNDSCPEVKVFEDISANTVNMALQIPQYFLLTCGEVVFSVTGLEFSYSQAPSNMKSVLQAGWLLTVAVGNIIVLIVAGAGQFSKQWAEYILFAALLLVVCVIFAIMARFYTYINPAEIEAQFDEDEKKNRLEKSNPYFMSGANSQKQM
Description: Materials: [^3H] Glycylsarcosine (Gly-Sar; 4 Ci/mmol) was purchased from Moravek Biochemicals (Brea, Calif.) and [^14C] Mannitol (50 mCi/mmol) was supplied by Amersham (Piscataway, N.J.). Human colon carcinoma derived Caco-2 cells were obtained from American Type Culture Collection (ATCC, Rockville, Md.). The growth medium, Dulbecco's modified Eagle Medium was obtained from Life Technologies (Grand Island, N.Y.). […] Fetal bovine serum (FBS) was purchased from JRH Biosciences (Lenexa, Kans.). Culture flasks (75 cm^2 growth area), polyester Transwells® (pore size 0.4 Cm with diameter 6.5 mm) and polyester membranes (pore size 0.4 Cm) were procured from Costar (Bedford, Mass.). The buffer components and solvents were obtained from Fisher Scientific (St. Louis, Mo.). All the di-peptide esters of acyclovir were custom synthesized in our laboratory. […] Cell Culture: All cultures were maintained in humidified incubator at 37° C. with a 5% carbon dioxide in air atmosphere. Caco-2 cells were obtained at passage 25 from American Type Culture Collection (ATCC) and grown in plastic tissue culture flasks. […] When 80% confluent, these cells were removed by treating them with Trypsin/EDTA and plated at a density of 100,000 cells/cm^2 on collagen coated plastic dishes containing clear polyester membranes (0.636 cm^2, […]) or 12-well tissue culture treated plastic plates. Cells were then grown in medium containing 10% FBS (heat-inactivated). […] [^14C] […] Metabolism studies in Cell Suspensions: Confluent Caco-2 cells, grown in tissue culture flasks were isolated with the aid of mechanical scraper and washed thrice with DPBS. […] One-hundred micro-liters of samples were withdrawn at predetermined time intervals and the sample was purified by precipitating the cellular proteins into the organic solvent mixture and stored at −80° C. until further analysis. The protein content of the cell suspension was determined by the method of Bradford using bovine serum albumin as the standard (BioRad protein estimation kit, Hercules, Calif.). […] Transport studies: Transport experiments were done using Side-Bi-Side™ diffusion cells (type VSC-1, Crown Glass Company Inc.) and Transwell® inserts. Prior to the experiment with Gly-Sar, Caco-2 cell monolayers grown on the clear polyester membranes and Transwell® inserts were washed with DPBS (pH 6.0) and incubated at 37° C. Freshly prepared drug solutions in DPBS (pH 6.0) was placed in the donor chamber and the receiver chamber was filled with DPBS. The volumes of donor and receptor chambers were 3 ml each for Side-Bi-Side™ diffusion cells and 0.5 ml and 1.5 ml respectively for Transwell® inserts. […] The samples were stored at −80° C. until analyzed HPLC. All experiments were performed at 37° C. […] The concentration dependent uptake of glycylsarcosine was studied using [^3H] […] For Dixon plots and Dose Response studies [^3H] […] Following incubation, the cell monolayers were washed three times with ice-cold HEPES buffer to terminate the uptake experiment. After the washings cells were lysed overnight using 1 ml 0.1% (w/v) Triton X-100 in 0.3 N NaOH at room temperature. Aliquots (500 μl) from each well were then transferred to scintillation vials containing 5 ml scintillation cocktail (Fisher Scientific, Fairlawn, N.J.). […] The amount of protein in the cell lysate was measured by the BioRad protein estimation kit using bovine serum albumin as standard (BioRad Protein estimation Kit, Hercules, Calif.). Analytical Procedures: All samples were assayed using HPLC. […] The column used was a C18 Luna column 4.6×250 mm (Phenomenex). The mobile phase consisted of a mixture of buffer and an organic modifier. The percentage of organic phase was varied in order to elute compounds of interest.

[2] = substrate: CN(CC(=O)O)C(=O)CN; test: as above; assay type: cell-based, human; settings: other: Gly-Sar alone, 37.0 °C

Molecule: Nc1ccc(C(=O)NCC(=O)O)cc1 [PAH, para-aminohippuric acid, reference compound]
- transport of Val-ACV (percent of control) ([1]; 1 mM Val-ACV in presence of 10 mM compound): 99.6±2.6% of control

- EC50 (HCMV): 0.94 µM
Molecule: Nc1nc(O)c2ncn(COC(CO)CO)c2n1 [GCV, 2-amino-1,9-[[2-hydroxy-1-(hydroxymethyl)ethoxy]methyl]-6H-purin-6-one]

Molecule: NCC(=O)OCCOCn1cnc2c(=O)[nH]c(N)nc21 [glycine-ACV]
- effect on the uptake of [3H] Gly-Sar (hPEPT1): did not inhibit

Molecule: Nc1nc2c(ncn2COCCOC(=O)C(N)Cc2ccc(O)cc2)c(=O)[nH]1 (stereo not drawn) [tyrosine-ACV]
- effect on the uptake of [3H] Gly-Sar (hPEPT1): did not inhibit

- effect on the uptake of [3H] Gly-Sar (hPEPT1): significantly inhibited
Molecule: CC(C)[C@H](N)C(=O)N[C@H](C(=O)O)C(C)C [val-val, reference compound] (H-Val-Val-OH)

Molecule: CC[N+](CC)(CC)CC [TEA, tetraethlyammonium, reference compound]
- transport of Val-ACV (percent of control) [1]: 101.3±1.1% of control

- effect on the uptake of [3H] Gly-Sar (hPEPT1): significantly inhibited
- Kd (rate constant of nonsaturable uptake component) (hPEPT1; Caco-2 uptake of glycylsarcosine): 12.2 ± 0.57 µL/min/mg
- Ki (hPEPT1; Dixon): 2350 ± 670 µM
- Ki (hPEPT1; Dose Response (Cheng and Prusoff from IC50)): 2490 µM
- Vmax of glycylsarcosine uptake (hPEPT1; Gly-Sar alone, Michaelis-Menten): 0.078 ± 0.005 µmol/min/mg
- IC50 (hPEPT1; dose response curves, read-out: IC50 of inhibition of [3H] Gly-Sar uptake): 2780 ± 340 µM
Molecule: CN(CC(=O)O)C(=O)CN [Gly-Sar, glycylsarcosine, reference compound] (H-Gly-[Sar]-OH)

B1: hPEPT1 (Homo sapiens) (protein)
chain: T1 sequence (P46059 1-708)
notes: endogenous in cells; host or cells: Caco-2 (human colon carcinoma, ATCC)
- Km ([2]; Eadie-Hofstee): 1.42 ± 0.19 mM
- Vmax ([2]; Eadie-Hofstee): 0.071 µmol/min/mg
- Km ([2]; Lineweaver-Burk (control)): 2.04 ± 0.61^a mM
- Vmax ([2]; Lineweaver-Burk (control)): 0.086 µmol/min/mg
- Km ([2]; Michaelis-Menten): 1.63 ± 0.25 mM
- Vmax ([2]; Michaelis-Menten): 0.078 µmol/min/mg
